Data: patent publication US20230085307A1, “PYRIDAZINONE COMPOUND AND HERBICIDE” (NISSAN CHEMICAL CORPORATION, priority 2019, published 2023)

What was measured:
chickweed [1] = test: Test Example 5: herbicidal effect by foliage application, plastic box (Table 20, symbol P); format: in vivo, common chickweed (Stellaria media); conditions: foliage application, AAH 320 g/ha, evaluated three weeks after application
In short: (§1)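 Plants sown in sterilized diluvial soil and grown 14 days in a greenhouse at 25° C to 30° C, then sprayed on the foliage with the compound's emulsion diluted in water to a predetermined herbicide amount. Injury to weeds and crops scored three weeks after application on a visual rating scale.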

Japanese bulrush = test: Test Example 1: herbicidal activity, application before weed generation under submerged conditions (Table 16, symbol B); format: in vivo, Japanese bulrush (Schoenoplectus juncoides); conditions: 320 g/ha applied herbicide
In short: (§2)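 Submerged Wagner pots (alluvial soil, 4 cm water) sown with weed seeds and planted with 2.5-leaf rice seedlings; emulsifiable concentrate diluted in water applied to water surface on sowing day. Held in greenhouse at 25-30 °C; injury scored 0-5 by herbicidal rate after three weeks.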

false cleavers = test: Test Example 5: herbicidal effect by foliage application, plastic box (Table 20, symbol Q); format: in vivo, false cleavers (Galium spurium); conditions: foliage application, AAH 320 g/ha, evaluated three weeks after application
In short: as §1

barnyard grass [2] = test: Test Example 5: herbicidal effect by foliage application, plastic box (Table 20, symbol H); format: in vivo, barnyard grass (Echinochloa crus-galli); conditions: foliage application, AAH 320 g/ha, evaluated three weeks after application
In short: as §1

late watergrass = test: Test Example 1: herbicidal activity, application before weed generation under submerged conditions (Table 16, symbol A); format: in vivo, late watergrass (Echinochloa oryzicola); conditions: 320 g/ha applied herbicide
In short: as §2

windgrass [3] = test: Test Example 5: herbicidal effect by foliage application, plastic box (Table 20, symbol L); format: in vivo, windgrass (Apera spica-venti); conditions: foliage application, AAH 320 g/ha, evaluated three weeks after application
In short: as §1

barnyard grass [4] = test: Test Example 3: herbicidal effect by foliage application, Wagner pot (Table 18, symbol H); format: in vivo, barnyard grass (Echinochloa crus-galli); conditions: amount of applied herbicide 320 g/ha
In short: (§3)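 Plants were sown in alluvial soil held under 0.1–0.5 cm standing water and grown 14 days in a greenhouse at 25–30 °C. An emulsifiable formulation, water-diluted to the set dose, was then sprayed onto the foliage, and effects were scored three weeks later using previously defined criteria.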

redroot pigweed [5] = test: Test Example 4: herbicidal effect by soil treatment (Table 19, symbol N); format: in vivo, redroot pigweed (Amaranthus retroflexus); conditions: amount of applied herbicide 320 g/ha
In short: (§4)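 Seeds were sown in sterilized diluvial soil and covered with about 1.5 cm of soil. An emulsion formulation diluted with water to a predetermined herbicide amount was sprayed evenly onto the soil surface. Plants grew in a greenhouse at 25° C. to 30° C., and the effect was scored three weeks after application using criteria from an earlier test.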

barnyard grass [6] = test: Test Example 4: herbicidal effect by soil treatment (Table 19, symbol H); format: in vivo, barnyard grass (Echinochloa crus-galli); conditions: amount of applied herbicide 320 g/ha
In short: as §4

chickweed [7] = test: Test Example 4: herbicidal effect by soil treatment (Table 19, symbol P); format: in vivo, common chickweed (Stellaria media); conditions: amount of applied herbicide 320 g/ha
In short: as §4

Italian ryegrass [8] = test: Test Example 4: herbicidal effect by soil treatment (Table 19, symbol K); format: in vivo, Italian ryegrass (Lolium multiflorum); conditions: amount of applied herbicide 320 g/ha
In short: as §4

green foxtail [9] = test: Test Example 4: herbicidal effect by soil treatment (Table 19, symbol G); format: in vivo, green foxtail (Setaria viridis); conditions: amount of applied herbicide 320 g/ha
In short: as §4

rice flat sedge = test: Test Example 3: herbicidal effect by foliage application, Wagner pot (Table 18, symbol E); format: in vivo, rice flat sedge (Cyperus iria); conditions: amount of applied herbicide 320 g/ha
In short: as §3

oval-leafed pondweed = test: Test Example 1: herbicidal activity, application before weed generation under submerged conditions (Table 16, symbol C); format: in vivo, oval-leafed pondweed (Monochoria vaginalis); conditions: 320 g/ha applied herbicide
In short: as §2

Chinese sprangletop = test: Test Example 3: herbicidal effect by foliage application, Wagner pot (Table 18, symbol D); format: in vivo, chinese sprangletop (Leptochloa chinensis); conditions: amount of applied herbicide 320 g/ha
In short: as §3

redroot pigweed [10] = test: Test Example 5: herbicidal effect by foliage application, plastic box (Table 20, symbol N); format: in vivo, redroot pigweed (Amaranthus retroflexus); conditions: foliage application, AAH 320 g/ha, evaluated three weeks after application
In short: as §1

wild oat [11] = test: Test Example 4: herbicidal effect by soil treatment (Table 19, symbol I); format: in vivo, wild oat (Avena fatua); conditions: amount of applied herbicide 320 g/ha
In short: as §4

Italian ryegrass [12] = test: Test Example 5: herbicidal effect by foliage application, plastic box (Table 20, symbol K); format: in vivo, Italian ryegrass (Lolium multiflorum); conditions: foliage application, AAH 320 g/ha, evaluated three weeks after application
In short: as §1

persian speedwell [13] = test: Test Example 4: herbicidal effect by soil treatment (Table 19, symbol R); format: in vivo, Persian speedwell (Veronica persica); conditions: amount of applied herbicide 320 g/ha
In short: as §4

blackgrass [14] = test: Test Example 5: herbicidal effect by foliage application, plastic box (Table 20, symbol J); format: in vivo, blackgrass (Alopecurus myosuroides); conditions: foliage application, AAH 320 g/ha, evaluated three weeks after application
In short: as §1

windgrass [15] = test: Test Example 4: herbicidal effect by soil treatment (Table 19, symbol L); format: in vivo, windgrass (Apera spica-venti); conditions: amount of applied herbicide 320 g/ha
In short: as §4

southern crabgrass [16] = test: Test Example 5: herbicidal effect by foliage application, plastic box (Table 20, symbol F); format: in vivo, southern crabgrass (Digitaria ciliaris); conditions: foliage application, AAH 320 g/ha, evaluated three weeks after application
In short: as §1

lambsquarters [17] = test: Test Example 4: herbicidal effect by soil treatment (Table 19, symbol O); format: in vivo, lambsquarters (Chenopodium album); conditions: amount of applied herbicide 320 g/ha
In short: as §4

blackgrass [18] = test: Test Example 4: herbicidal effect by soil treatment (Table 19, symbol J); format: in vivo, blackgrass (Alopecurus myosuroides); conditions: amount of applied herbicide 320 g/ha
In short: as §4

persian speedwell [19] = test: Test Example 5: herbicidal effect by foliage application, plastic box (Table 20, symbol R); format: in vivo, Persian speedwell (Veronica persica); conditions: foliage application, AAH 320 g/ha, evaluated three weeks after application
In short: as §1

lambsquarters [20] = test: Test Example 5: herbicidal effect by foliage application, plastic box (Table 20, symbol O); format: in vivo, lambsquarters (Chenopodium album); conditions: foliage application, AAH 320 g/ha, evaluated three weeks after application
In short: as §1

wild oat [21] = test: Test Example 5: herbicidal effect by foliage application, plastic box (Table 20, symbol I); format: in vivo, wild oat (Avena fatua); conditions: foliage application, AAH 320 g/ha, evaluated three weeks after application
In short: as §1

velvetleaf [22] = test: Test Example 5: herbicidal effect by foliage application, plastic box (Table 20, symbol M); format: in vivo, velvetleaf (Abutilon theophrasti); conditions: foliage application, AAH 320 g/ha, evaluated three weeks after application
In short: as §1

southern crabgrass [23] = test: Test Example 4: herbicidal effect by soil treatment (Table 19, symbol F); format: in vivo, southern crabgrass (Digitaria ciliaris); conditions: amount of applied herbicide 320 g/ha
In short: as §4

velvetleaf [24] = test: Test Example 4: herbicidal effect by soil treatment (Table 19, symbol M); format: in vivo, velvetleaf (Abutilon theophrasti); conditions: amount of applied herbicide 320 g/ha
In short: as §4

green foxtail [25] = test: Test Example 5: herbicidal effect by foliage application, plastic box (Table 20, symbol G); format: in vivo, green foxtail (Setaria viridis); conditions: foliage application, AAH 320 g/ha, evaluated three weeks after application
In short: as §1

## Cc1ccc(S(=O)(=O)Oc2c(C)nn(C)c(=O)c2-c2c(-c3ccc(OC(F)F)cc3)sc3ccc(F)cc23)cc1 [2-312]
Chickweed [1]
  P: chickweed, herbicidal effect (criteria 0-5): 5 (Herbicidal rate of 90% or more (almost completely withered))
Japanese bulrush
  Herbicidal effect on B: Japanese bulrush (grade 0-5): 3 (Herbicidal rate of 40% or more and less than 70%)
False cleavers
  Q: false cleavers, herbicidal effect (criteria 0-5): 5 (Herbicidal rate of 90% or more (almost completely withered))
Barnyard grass [2]
  H: barnyard grass, herbicidal effect (criteria 0-5): 5 (Herbicidal rate of 90% or more (almost completely withered))
Late watergrass
  Herbicidal effect on A: late watergrass (grade 0-5): 2 (Herbicidal rate of 20% or more and less than 40%)
Windgrass [3]
  L: windgrass, herbicidal effect (criteria 0-5): 4 (Herbicidal rate of 70% or more and less than 90%)
Barnyard grass [4]
  herbicidal effect on H: barnyard grass: 5 (Herbicidal rate of 90% or more (almost completely withered))
Redroot pigweed [5]
  herbicidal effect on N: redroot pigweed: 5 (Herbicidal rate of 90% or more (almost completely withered))
Barnyard grass [6]
  herbicidal effect on H: barnyard grass: 1 (Herbicidal rate of 5% or more and less than 20%)
Chickweed [7]
  herbicidal effect on P: chickweed: 5 (Herbicidal rate of 90% or more (almost completely withered))
Italian ryegrass [8]
  herbicidal effect on K: Italian ryegrass: 5 (Herbicidal rate of 90% or more (almost completely withered))
Green foxtail [9]
  herbicidal effect on G: green foxtail: 0 (Herbicidal rate of 5% or less (almost no effect))
Rice flat sedge
  herbicidal effect on E: rice flat sedge: 5 (Herbicidal rate of 90% or more (almost completely withered))
oval-leafed pondweed
  Herbicidal effect on C: oval-leafed pondweed (grade 0-5): 0 (Herbicidal rate of 5% or less (almost no effect))
Chinese sprangletop
  herbicidal effect on D: Chinese sprangletop: 3 (Herbicidal rate of 40% or more and less than 70%)
Redroot pigweed [10]
  N: redroot pigweed, herbicidal effect (criteria 0-5): 5 (Herbicidal rate of 90% or more (almost completely withered))
Wild oat [11]
  herbicidal effect on I: wild oat: 0 (Herbicidal rate of 5% or less (almost no effect))
Italian ryegrass [12]
  K: Italian ryegrass, herbicidal effect (criteria 0-5): 5 (Herbicidal rate of 90% or more (almost completely withered))
Persian speedwell [13]
  herbicidal effect on R: persian speedwell: 5 (Herbicidal rate of 90% or more (almost completely withered))
Blackgrass [14]
  J: blackgrass, herbicidal effect (criteria 0-5): 4 (Herbicidal rate of 70% or more and less than 90%)
Windgrass [15]
  herbicidal effect on L: windgrass: 0 (Herbicidal rate of 5% or less (almost no effect))
Southern crabgrass [16]
  F: southern crabgrass, herbicidal effect (criteria 0-5): 1 (Herbicidal rate of 5% or more and less than 20%)
Lambsquarters [17]
  herbicidal effect on O: lambsquarters: 4 (Herbicidal rate of 70% or more and less than 90%)
Blackgrass [18]
  herbicidal effect on J: blackgrass: 3 (Herbicidal rate of 40% or more and less than 70%)
Persian speedwell [19]
  R: persian speedwell, herbicidal effect (criteria 0-5): 5 (Herbicidal rate of 90% or more (almost completely withered))
Lambsquarters [20]
  O: lambsquarters, herbicidal effect (criteria 0-5): 5 (Herbicidal rate of 90% or more (almost completely withered))
Wild oat [21]
  I: wild oat, herbicidal effect (criteria 0-5): 3 (Herbicidal rate of 40% or more and less than 70%)
Velvetleaf [22]
  M: velvetleaf, herbicidal effect (criteria 0-5): 5 (Herbicidal rate of 90% or more (almost completely withered))
Southern crabgrass [23]
  herbicidal effect on F: southern crabgrass: 0 (Herbicidal rate of 5% or less (almost no effect))
Velvetleaf [24]
  herbicidal effect on M: velvetleaf: 3 (Herbicidal rate of 40% or more and less than 70%)
Green foxtail [25]
  G: green foxtail, herbicidal effect (criteria 0-5): 4 (Herbicidal rate of 70% or more and less than 90%)
